Key:
[1] = tested on: scopolamine induced amnesic rat model; experiment: Y-maze test, scopolamine induced amnesic rat model (Example 9A); format: in vivo, Male Wistar rats; conditions: scopolamine 1 mg/kg i.p.; for Curiosity behavior (total arm entries), trial-1 and trial-2 / Spatial recognition memory (known vs novel arm entries %), trial-2: p.o. 7 days: B 50, A 50, B:A 10:50 and 50:50 mg/kg; for Curiosity behavior (total arm entries), trial-1 and trial-2: Shilajit 25 mg/kg b.i.d; for Coping behavior to novel environment (% time in novel arm), trial-2: p.o. 7 days: B 50, A 50, B:A 10:50 and 50:50, Shilajit 50 mg/kg
Experimental: The experiment was conducted in accordance with the Principles of laboratory animal care. Male Wistar rats (200-250 g) were purchased from the Central Animal House, Institute of Medical Sciences, Banaras Hindu University (BHU), Varanasi, India. Experiments on animals were approved by the Institutional Animal Ethics Committee of BHU, Varanasi, India. The animals were housed in polypropylene cages under controlled environmental conditions of temperature of 25±1° C. and 45-55% relative humidity and a 12:12 h light/dark cycle. The experimental animals had free access to commercial rat feed and water ad libitum during the experiment. Animals were acclimatized for at least one week before using them for experiments and exposed only once to the experiment.
Rats were randomly allocated into eight study groups containing six in each group (n=6), as follows:
Drug solution was freshly prepared in 0.3% CMC and administered by oral gavage once a day, for a period of 7 days. Briefly, the whole experiment was conducted for 8 days. Scopolamine (1 mg/kg), a muscarinic receptor antagonist, was dissolved in normal saline (0.9% NaCl) and administered intraperitoneally 1 h after drugs administration on seventh day.
Assessment of short term memory by Y maze test paradigm. The Y-maze test was performed essentially to assess spatial recognition memory, general exploratory behavior and anxiety-like behavior by following the standard protocol (Dellu, F., Mayo, W., Cherkaoui, J., Le Moal, M., Simon, H., “A two-trial memory task with automated recording: study in young and aged rats,” Brain Res. (1992) 588: 132-139). The Y-maze apparatus consists of three identical arms (50 cm long, 16 cm wide and 32 cm high) at 120° angles to each other, radiating out from a central point. Visual cues made from colored construction paper and laboratory glassware were placed around the perimeter of the maze and above the top of the black plexiglass sides and these cues were not repeated for each test to maintain novelty to the animals. The novel arm of the Y-maze was blocked and rats were allowed to visit the other two arms of the maze for 15 min. Four hours after the first phase, animals had free access to all three arms for 5 min. The number of entries in each arm was recorded for a 5-min period. The dependent variables such as the total number of entries in all arms (for the 5 min of trial 1 and 2), the % entries in known and novel arms for the 5 min period of trial 2 and the percentage of ratio of time spent in novel arm to time spent in all the arms and in the center of the apparatus during trial 2 were measured. The total number of entries in all arms (for the 5 min of trial 1 and 2) is indicative of general exploration attitude (curiosity) and the % entries in known versus novel arm for the 5 min period of trial 2 is considered as a measure of arm discrimination (spatial recognition memory). Coping strategy or behavior to novel environment was estimated by the percentage of time spent in novel arm to time spent in all arms and in the center of the apparatus during trial 2. The decrease in the coping behavior to novel environment was considered as increase in anxiety-like behavior. An arm entry was counted when the head and two front paws were inside the arm, and duration of an arm visit was ended when the head and two front paws were outside the arm again.

Human recombinant AChE = target: T1, Human recombinant AChE (Homo sapiens, UniProt P22303); experiment: In-vitro human recombinant AChE inhibition assay, Amplex Red kit method; format: biochemical; conditions: Table 11
T1 construct: purchased Sigma Aldrich

[2] = target: T2, Rat Acetylcholinesterase-induced β-Amyloid (Aβ1-40) Aggregation (Rattus norvegicus, UniProt P37136); experiment: Inhibition of AChE-induced β-amyloid peptide aggregation, ThT method; format: biochemical; conditions: test compounds 50 μM, B:A in μM, ThT fluorescence, 48 h
T2 sequence (P37136 32-614): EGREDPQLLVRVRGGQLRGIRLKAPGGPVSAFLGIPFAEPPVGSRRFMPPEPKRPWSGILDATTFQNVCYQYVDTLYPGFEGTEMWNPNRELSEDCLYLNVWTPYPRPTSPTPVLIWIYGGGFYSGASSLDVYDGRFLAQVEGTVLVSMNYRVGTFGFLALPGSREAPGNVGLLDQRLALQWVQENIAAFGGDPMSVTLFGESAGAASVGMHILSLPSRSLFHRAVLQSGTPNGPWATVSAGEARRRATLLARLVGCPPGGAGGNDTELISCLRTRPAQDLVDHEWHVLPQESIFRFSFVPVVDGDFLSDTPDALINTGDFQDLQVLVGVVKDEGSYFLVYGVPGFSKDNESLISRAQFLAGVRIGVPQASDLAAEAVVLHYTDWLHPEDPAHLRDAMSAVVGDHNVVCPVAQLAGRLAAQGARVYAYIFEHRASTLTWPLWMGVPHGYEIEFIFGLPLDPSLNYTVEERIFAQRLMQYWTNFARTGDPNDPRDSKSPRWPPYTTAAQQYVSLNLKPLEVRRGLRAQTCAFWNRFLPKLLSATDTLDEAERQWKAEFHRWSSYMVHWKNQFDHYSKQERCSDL
Experimental: Chemical reagents and starting materials were employed as above.
The effect of 3-OH-DBP (Urolithin B: B) and 3,8-(OH)2-DBP (Urolithin A: A) on the aggregation propensity of Aβ1-40 and (Thiofavin-T) ThT assay measurements were performed. […] Therefore, ThT assay was performed to study the effect of 3-(OH)-DBP (B) and 3,8-(OH)2-DBP (A) on the fibrillization of Aβ1-40.
The Aβ1-40 (10 μM and 30 μM) was incubated alone and independently with different concentrations of test compounds in the ratios shown in Tables 6 and 7, respectively.
2 μL of different concentrations of Aβ40 (10 and 30 μM) was incubated with 16 μL of AChE in the presence of different ratio of test compounds to obtain final concentrations of 30 or 10 μM Aβ40, […], 10, 20, 50 μM test compounds and 2 μL assay buffer ([…]). The mixture was incubated at room temperature for 24 or 48 hr in dark (Time period may be changed according to experiment).
Fluorescence intensities were obtained for Aβ40 aggregation in the presence of inhibitors, in the absence of inhibitors and the blanks or solvent control. After incubation, 178 μL of 20 μM ThT was added.
The percentage inhibition of the AChE-induced Aβ1-40 aggregation was calculated as follows.
Preparation of Aβ40Stock: Aβ40 peptide (0.25 mg) (Calbiochem, Merck) was dissolved in hexafluoro-2-propanol (HFIP, 0.2 mL) and incubated at room temperature for 1 h. HFIP was then removed by the flow of nitrogen and further dried under vacuum. The concentration of Aβ40 peptide was determined by UV-vis spectrometry (Biotek USA; Plate reader) using a molar extinction coefficient of 1450 cm^−1 M^−1 at 276 nm. HFIP-treated A1340 was then dissolved in 10 mM PBS buffer to a concentration of […] at pH 7.4. The assay was performed in triplicate and in three independent runs.

T1 sequence (P22303 32-614): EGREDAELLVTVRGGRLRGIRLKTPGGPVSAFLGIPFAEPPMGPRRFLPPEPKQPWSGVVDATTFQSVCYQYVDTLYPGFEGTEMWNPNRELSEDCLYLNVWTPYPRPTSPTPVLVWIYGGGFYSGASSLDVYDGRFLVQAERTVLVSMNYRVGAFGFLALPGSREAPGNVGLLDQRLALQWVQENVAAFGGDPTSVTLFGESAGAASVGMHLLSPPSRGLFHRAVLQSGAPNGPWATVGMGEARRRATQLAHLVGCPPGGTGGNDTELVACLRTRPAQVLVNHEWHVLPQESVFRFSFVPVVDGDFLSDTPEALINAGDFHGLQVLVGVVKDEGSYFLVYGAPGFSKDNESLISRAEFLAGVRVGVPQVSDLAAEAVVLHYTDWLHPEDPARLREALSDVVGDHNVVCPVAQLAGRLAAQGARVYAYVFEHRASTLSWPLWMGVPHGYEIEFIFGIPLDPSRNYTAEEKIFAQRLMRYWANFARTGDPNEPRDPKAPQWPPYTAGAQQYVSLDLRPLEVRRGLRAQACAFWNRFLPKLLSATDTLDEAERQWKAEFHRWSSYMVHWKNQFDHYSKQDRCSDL

For `O=c1oc2cc(O)ccc2c2ccc(O)cc12` [Urolithin A, 3,8-dihydroxy-dibenzo-alpha-pyrone], the “Curiosity behavior (total arm entries), trial-1 and trial-2” value [1] was “attenuated the scopolamine induced decrease in curiosity behavior”, the “Spatial recognition memory (known vs novel arm entries %), trial-2” value [1] was “significantly reversed the scopolamine induced failed the discrimination behavior but not similar as to the vehicle group” and the “Coping behavior to novel environment (% time in novel arm), trial-2” value [1] was “attenuated the scopolamine-induced decrease in coping strategy to a novel environment but not similar to that vehicle group”. The IC50 (Human recombinant AChE) was 528.00 ± 70.71 µg/mL, the “inhibition of Aβ40 aggregation” value ([2]; Aβ40 30 μM) was ~32% and the “inhibition of Aβ40 aggregation” value ([2]; amyloid beta 10 μM) was ~35%.
In the case of `O=c1oc2cc(O)ccc2c2ccccc12` [Urolithin B, 3-hydroxy-dibenzo-alpha-pyrone], the “Curiosity behavior (total arm entries), trial-1 and trial-2” value [1] is reported as “attenuated the scopolamine induced decrease in curiosity behavior”, the “Spatial recognition memory (known vs novel arm entries %), trial-2” value [1] is reported as “significantly reversed the scopolamine induced failed the discrimination behavior but not similar as to the vehicle group” and the “Coping behavior to novel environment (% time in novel arm), trial-2” value [1] is reported as “attenuated the scopolamine-induced decrease in coping strategy to a novel environment but not similar to that vehicle group”. The IC50 (Human recombinant AChE) was 412.00 ± 28.28 µg/mL, the “inhibition of Aβ40 aggregation” value ([2]; Aβ40 30 μM) was ~41% and the “inhibition of Aβ40 aggregation” value ([2]; amyloid beta 10 μM) was ~50%.

— patent US20200246308A1, “SYNERGISTIC COMBINATIONS OF UROLITHINS A AND B FOR IMPROVING COGNITIVE CAPACITY OR COGNITIVE FUNCTION” (Natreon, Inc., priority 2018, published 2020)
